Earlier results in patent EP3173421A1, “PEPTIDIC COMPOUNDS USEFUL AS ANTIBACTERIAL AGENTS” (Universitat de Barcelona, priority 2015, dated 2017).
Where a SMILES comes first, the peptide text is derived from it. Bridges are numbered along the chain shown (N, C = ends). Where no end group is shown, it is not given here. [ ]: non-standard residue; d: D form. The star is where a group is joined. ξ: configuration not given here. Thr(3ξ) = CC(O)[C@H](N)C(=O)O; Decanoyl = CCCCCCCCCC(=O)*; X1 = CC[C@H](C)CCCCC(=O)*; Nle = CCCC[C@H](N)C(=O)O; Dab = NCC[C@H](N)C(=O)O

Experiments:
[1] = tested on: Pseudomonas aeruginosa 36a; settings: P. aeruginosa 36a; comparative examples, extracted from Rabanal et al. 2015; cited from earlier work
Escherichia coli VAL 10 = settings: E coli VAL10; comparative examples, extracted from Rabanal et al. 2015; cited from earlier work
[2] = tested on: Pseudomonas aeruginosa 38a; settings: P. aeruginosa 38a; comparative examples, extracted from Rabanal et al. 2015; cited from earlier work
[3] = tested on: Pseudomonas aeruginosa ATCC 9027; settings: P. aeruginosa ATTC9027 (non-resistant); comparative examples, extracted from Rabanal et al. 2015; cited from earlier work
Escherichia coli VAL 5 = settings: E coli VAL 5; comparative examples, extracted from Rabanal et al. 2015; cited from earlier work
Escherichia coli MAC21a = settings: E coli MAC21 a; comparative examples, extracted from Rabanal et al. 2015; cited from earlier work
Escherichia coli NDM-1 = settings: E coli NDM-1; comparative examples, extracted from Rabanal et al. 2015; cited from earlier work
[4] = tested on: Escherichia coli ATCC 8739; settings: E coli ATCC8739 (non-resistant); comparative examples, extracted from Rabanal et al. 2015; cited from earlier work
[5] = tested on: Staphylococcus aureus ATTC6538; settings: S. aureus ATTC6538; comparative examples, extracted from Rabanal et al. 2015; cited from earlier work
[6] = after 6h; kidneys versus serum; cited from earlier work

In the case of “polymyxin E (colistin) [polymyxin E (colistin) (8e)]”, the MIC [1] is listed as 1 µg/mL, the MIC (Escherichia coli VAL 10) is listed as 0.5 µg/mL and the MIC [2] is listed as 1 µg/mL. For the same molecule, the MIC [3] was 1 µg/mL, the MIC (Escherichia coli VAL 5) was 0.25 µg/mL and the MIC (Escherichia coli MAC21a) was 0.25 µg/mL. For the same molecule, the MIC (Escherichia coli NDM-1) was 0.5 µg/mL.

In the case of “Decanoyl-[Dab]T[Dab]C[Dab][dF][Nle][Dab][Dab][dC] (cysteine pairing not given here) [Comparative Example 8c]”, the MIC (Escherichia coli VAL 10) is listed as 0.5 µg/mL, the MIC [2] is listed as 0.5 µg/mL and the MIC [4] is listed as 2 µg/mL. For the same molecule, the MIC [3] was 1 µg/mL, the MIC (Escherichia coli VAL 5) was 0.5 µg/mL and the MIC [5] was 4 µg/mL. For the same molecule, the MIC (Escherichia coli MAC21a) was 0.5 µg/mL and the MIC (Escherichia coli NDM-1) was 0.5 µg/mL.

For `CC[C@H](C)CCCCC(=O)N[C@@H](CCN)C(=O)N[C@H](C(=O)N[C@@H](CCN)C(=O)N[C@H]1CCNC(=O)[C@H](C(C)O)NC(=O)[C@H](CCN)NC(=O)[C@H](CCN)NC(=O)[C@H](CC(C)C)NC(=O)[C@@H](Cc2ccccc2)NC(=O)[C@H](CCN)NC1=O)C(C)O` (stereo partly shown) [polymyxin B (8d), Polymyxin B] (X1-[Dab][Thr(3ξ)][Dab][Dab][Dab][dF]L[Dab][Dab][Thr(3ξ)]; lactam 4-C), the “concentration in kidneys as multiple of the serum concentration” value [6] is listed as “more than 30”.
